{"source": "PubChem BioAssay AID2423", "about": "(Broad Institute, 2010)", "note": "Results filed as inconclusive are left out. Activity calls are given as the source filed them. The rule behind the calls is not given here.", "data": [{"system": "C. albicans CaCi-8 + fluconazole, Alamar Blue growth, 48 h", "experiment": "resistant C. albicans growth inhibition with fluconazole, dose response, CaCi-8 strain, Alamar Blue fluorescence (AID 2423)", "values": [{"smiles": "CC[n+]1c(/C=C2\\Sc3ccccc3N2C)ccc2cccc(C)c21", "EC50": "< 120 nM"}, {"smiles": "[O-][N+]1=c2ccc(Nc3ccccc3)cc2=NC12CCCCC2", "EC50": "750 nM"}, {"smiles": "O=C(NNC(=S)NC1CCCCC1)c1ccccc1Br", "EC50": "> 16000 nM (inactive)"}, {"smiles": "COc1cc(C(=O)Oc2c(CN3CCOCC3)cc(Cl)c3cccnc23)cc(OC)c1OC", "EC50": "2740 nM"}, {"smiles": "O=C(Nc1nnc(COc2ccc(F)cc2)s1)c1ccco1", "EC50": "7770 nM"}, {"smiles": "C(#Cc1ccccc1)C[N+]1(CC#Cc2ccccc2)CCCCC1", "EC50": "10500 nM"}, {"smiles": "O=C(CCCCCN1C(=O)c2cccc3cccc(c23)C1=O)N1CCOCC1", "EC50": "> 15000 nM (inactive)"}, {"smiles": "C(=C\\c1ccccc1)/C=N/Nc1nc(N2CCCCC2)nc(N2CCCCC2)n1", "EC50": "> 15000 nM (inactive)"}, {"smiles": "O=C(OCn1ncc(Cl)c(Cl)c1=O)c1cccc(C(F)(F)F)c1", "EC50": "2460 nM"}, {"smiles": "CC(=O)NNC(=S)NC(=O)C(c1ccccc1)c1ccccc1", "EC50": "3190 nM"}, {"smiles": "Cc1cccc(C(=O)NC(=S)NNC(=O)Cc2ccccc2)c1", "EC50": "10600 nM"}, {"smiles": "Oc1ccc(/C=N/n2c(COc3ccccc3)n[nH]c2=S)cc1O", "EC50": "16300 nM"}, {"smiles": "Brc1cccc(CSc2nnc(-c3ccncc3)o2)c1", "EC50": "> 15000 nM (inactive)"}, {"smiles": "COc1ccc(-c2cc(-c3cc(F)ccc3O)[nH]n2)cc1OC", "EC50": "13900 nM"}, {"smiles": "O=C(CC(NCCN1CCOCC1)C(=O)O)Nc1cccc(Cl)c1", "note": "(stereo not given)", "EC50": "> 16000 nM (inactive)"}, {"smiles": "O=[N+]([O-])c1cccc(C=Nc2cccc3ccccc23)c1O", "EC50": "12200 nM"}, {"smiles": "Fc1cccc(-n2cc(-c3ccccc3)c3c(=S)nc[nH]c32)c1", "EC50": "1800 nM"}, {"smiles": "NCC(c1ccc(Cl)cc1Cl)c1c[nH]c2ccccc12", "note": "(stereo not given)", "EC50": "> 16000 nM (inactive)"}, {"smiles": "CCOC(=O)c1nc(NNC(=O)c2ccc([N+](=O)[O-])cc2)sc1C", "EC50": "981 nM"}, {"smiles": "CCOC(=O)Cc1csc(NC(=O)CSc2nnc(-c3ccncc3)o2)n1", "EC50": "< 120 nM"}, {"smiles": "Clc1ccc2c(c1)C(c1cccs1)=NNC(c1cccnc1)=N2", "EC50": "< 120 nM"}, {"smiles": "Nc1c(S(=O)(=O)c2ccccc2)c2nc3ccccc3nc2n1CCN1CCOCC1", "EC50": "2970 nM"}, {"smiles": "Cc1ccc2[nH]c(C)c(/C=C/c3cc[n+](C)cc3)c2c1", "EC50": "2910 nM"}, {"smiles": "O=C(O)c1ccc(-c2nc(-c3ccc(Cl)cc3)cs2)cc1", "EC50": "3420 nM"}, {"smiles": "O=[N+]([O-])CC(c1ccccc1)P(=O)(c1ccccc1)c1ccccc1", "note": "(stereo not given)", "EC50": "1890 nM"}, {"smiles": "COc1ccc(CCNC(=O)c2c(O)c3ccccc3n(C)c2=O)cc1", "EC50": "> 15000 nM (inactive)"}, {"smiles": "CCCC(=O)NC(c1ccccc1Cl)c1ccc2cccnc2c1O", "note": "(stereo not given)", "EC50": "516 nM"}, {"smiles": "Cc1cc(OC(=O)c2ccco2)c2c3c(c(=O)oc2c1)CCCC3", "EC50": "953 nM"}, {"smiles": "CC1(C)COCN1S(=O)(=O)c1ccc(C(=O)Nc2nnc(-c3ccc(Cl)s3)o2)cc1", "EC50": "484 nM"}, {"smiles": "O=C(CCS(=O)(=O)c1ccc(F)cc1)Nc1nc(-c2ccncc2)cs1", "EC50": "1490 nM"}, {"smiles": "Nc1ncc(Br)cc1S(=O)(=O)Nc1cc(C(F)(F)F)cc(C(F)(F)F)c1", "EC50": "918 nM"}, {"smiles": "Cc1cc(Sc2ncnc(N)c2[N+](=O)[O-])ncn1", "EC50": "659 nM"}, {"smiles": "O=C(CN1CCCc2ccccc21)N/N=C/c1c(O)ccc2ccccc12", "EC50": "1200 nM"}, {"smiles": "Cc1cc([N+](=O)[O-])ccc1-c1ccc(C2Nc3ccccc3C(=O)N2O)o1", "note": "(stereo not given)", "EC50": "2440 nM"}, {"smiles": "Cc1ccc(C2(c3noc(CN4CCC(c5ccncc5)CC4)n3)CCCC2)cc1", "EC50": "> 15000 nM (inactive)"}, {"smiles": "COc1ccc(C2Nc3ccccc3C(=O)N2O)cc1OC", "note": "(stereo not given)", "EC50": "> 15000 nM (inactive)"}, {"smiles": "Cc1ccc(NC(=O)c2ccc([N+](=O)[O-])o2)cc1C", "EC50": "1130 nM"}, {"smiles": "Oc1c(CN2CCN(c3ccccc3)CC2)cc(Br)c2cccnc12", "EC50": "1230 nM"}, {"smiles": "CN1CCc2cc3c(c4c2[C@H]1[C@H](O)c1ccccc1-4)OCO3", "EC50": "8200 nM"}, {"smiles": "CC(C)C(Sc1nc(-c2ccccc2)cc(-c2ccccc2)c1C#N)C(=O)O", "note": "(stereo not given)", "EC50": "3770 nM"}, {"smiles": "N#C/C(=N/Nc1ccc(OC(F)(F)F)cc1)C(N)=S", "EC50": "> 15000 nM (inactive)"}, {"smiles": "COc1ccc(-c2nnc(NC(=O)c3ccc(S(=O)(=O)N4CCCc5ccccc54)cc3)o2)cc1", "EC50": "193 nM"}, {"smiles": "COc1cc2ccccc2cc1C(=O)NNC(=O)c1ccccc1O", "EC50": "8440 nM"}, {"smiles": "C/C(CC(C)(C)C1CCCCC1)=N\\NC(N)=S", "EC50": "> 16000 nM (inactive)"}, {"smiles": "COc1ccccc1NC(c1cccnc1)c1ccc2cccnc2c1O", "note": "(stereo not given)", "EC50": "14900 nM"}, {"smiles": "CCCc1ccc(C2C3=C(CC(C)(C)CC3=O)NC3=C2C(=O)c2ccccc23)cc1", "note": "(stereo not given)", "EC50": "1780 nM"}, {"smiles": "O=S1(=O)N=C(Nc2ccc(N3CCOCC3)cc2)c2ccccc21", "EC50": "> 16000 nM (inactive)"}, {"smiles": "COCCNC(=O)CCCn1c(=O)c2cc(OC)c(OC)cc2n(CC(=O)NCCC2=CCCCC2)c1=O", "EC50": "5380 nM"}, {"smiles": "O=C(c1cc2c(s1)-c1ccccc1OC2)N1CCC2(CC1)OCCO2", "EC50": "2000 nM"}, {"smiles": "COc1cccc(COc2cc3ccccc3nc2C)c1", "EC50": "1060 nM"}, {"smiles": "O=S(=O)(Cc1ccccc1)N1CCc2ccccc21", "EC50": "10900 nM"}, {"smiles": "C=C(C)COc1ccc(-c2n[nH]c(C)c2-c2ccccc2)c(O)c1", "EC50": "4290 nM"}, {"smiles": "CSc1ccc(/C=C/C(=O)Nc2ccccc2)cc1", "EC50": "> 15000 nM (inactive)"}, {"smiles": "O=C(COc1ccc2c(c1)CCC2)N1CCN(c2cccc(C(F)(F)F)c2)CC1", "EC50": "> 16000 nM (inactive)"}, {"smiles": "O=[N+]([O-])c1ccc(O)c(/C=N/NC(=S)Nc2ccc(Cl)cc2Cl)c1", "EC50": "1870 nM"}]}]}
